The target of one assay is T1, A3AR (Homo sapiens, UniProt P0DMS8).
T1 sequence (P0DMS8 1-318): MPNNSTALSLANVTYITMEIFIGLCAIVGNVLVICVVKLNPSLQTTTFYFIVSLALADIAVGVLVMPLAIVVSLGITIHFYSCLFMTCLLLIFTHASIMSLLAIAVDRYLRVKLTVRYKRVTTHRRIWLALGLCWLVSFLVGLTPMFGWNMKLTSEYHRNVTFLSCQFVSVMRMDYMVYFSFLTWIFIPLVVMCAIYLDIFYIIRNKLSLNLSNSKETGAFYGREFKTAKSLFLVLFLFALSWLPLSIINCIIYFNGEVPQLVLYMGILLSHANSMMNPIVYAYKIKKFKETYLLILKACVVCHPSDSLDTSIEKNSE
The assay is described as follows: cAMP assay at A3AR using full agonist Cl-IB-MECA. The format is cell-based. The following applies: FIG. 1C.

Assay [1] deals with brown adipocytes. The assay is described as follows: Immunoblot of PKA downstream proteins (P-HSL, P-CREB) in brown adipocytes. The format is cell-based, mouse. The protocol:
Adipocyte precursor cells capable of differentiating into brown adipocytes were isolated from mouse brown adipose tissue. Cells were cultured in Dulbecco's modified Eagle's medium (Welgene, LM001-07) containing 10% fetal bovine serum (FBS, Gibco, 16000044) and 1% Penicillin Streptomycin (Welgene, LS202-02) at 37° C. in a humidified atmosphere with 5% CO2. When the cells reached about 100% confluency, the cells were exposed to a differentiation medium supplemented with 2.5 mM isobutyl methylxanthine (IBMX, Cayman, I5879), 0.125 mM indomethacin (Cayman, 70270), 1 μM dexamethasone (Cayman), 1 μg/mL insulin (Sigma, I9278), and 1 nM triiodothyronine (T3, Cayman, 6028) for 3 days for adipogenesis. Then, the cells were maintained in a growth medium containing 1 μg/mL insulin and 1 nM triiodothyronine (T3) for 3 days.
(§1) In the case of Western blots, the primary antibodies used for Western blots are summarized in [Table 2] above. An anti-rabbit horseradish peroxidase antibody (1:3000, Thermo Fisher, 31460) and an anti-mouse horseradish peroxidase antibody (1:3000, Jackson, 115-035-174) were used as secondary antibodies. All antibodies were diluted in a blocking buffer (5% skimmed milk or 5% bovine serum albumin in TBST). Western blot images were acquired using a Fusion Solo chemiluminescence imaging system (Vilber Lourmat) and analyzed with Evolution Capt software (version 17.03). NIH ImageJ software was used for quantification.
(In general: Immunoblotting shows a protein as a band on a membrane.)

The subject of assay [2] is brown adipocytes. Briefly: Oxygen consumption rate (XFp analyzer). Particulars: 0.1 μM, 24 hours. The format is cell-based, mouse. The procedure:
Oxygen consumption rate (OCR) was measured using an XFp analyzer. Cells were cultured in XF DMEM basal medium (Agilent, 103575-100, pH 7.4) supplemented with 4 mM L-glutamine (Sigma, G8540) and 25 mM D-glucose (Sigma, G7021) at 37° C. The XFp Cell Mitochondrial Stress Test Kit (Agilent, 103010-100) was prepared and calculated sequentially with optimal final concentrations of 2.5 μM oligomycin, 0.5 μM FCCP and 0.5 μM rotenone/antimycin A and basal, maximal and proton leakage. Then, the OCR was normalized to protein concentration.

The test system of a further assay is BAT, iWAT, and gWAT. The assay is described as follows: TTC staining of adipose tissue (ex vivo electron transport activity). The format is in vivo, mouse. Particulars: mice, 1 mg·kg-1day-1 intraperitoneally, 10 days.
The subject of the next assay is HFD-fed mice. Briefly: Immunoblot of BAT and iWAT of treated obese mice. The class given is in vivo, mouse. The following applies: 1 mg kg-1/day, 10 days. The protocol: Mice fed a normal chow diet (NCD) and a high-fat diet (HFD) were treated with LJ-4378 (LJ, 1 mg kg-1/day) for 10 days. (A) Immunoblot analysis of BAT (n=6, mean±SEM, ** p<0.01, **** p<0.0001). (B) Immunoblot analysis in iWAT. Tubulin was a loading control. (n=6, mean±SEM, * p<0.05, *** p<0.001, **** p<0.0001).
For a diet-induced obesity model, mice were fed a high-fat diet (HFD)(Research Diets, D12492, protein: 20% kcal, carbohydrate: 20% kcal, and fat: 60% kcal) for 8 weeks. Then, LJ-4378 (1 mg kg-1) was injected into the mice once daily for 10 days.
as §1

Structures are written as SMILES.

Protocol for BAT, iWAT, and gWAT: 6-week-old C57BL/6 male mice and CIDEA reporter mice were used according to the approved protocols by Institutional Animal Care and Use Committees of Seoul National University (SNU-201107-1, SNU-201221-3) for in vivo experiments. The mice were housed under a 12 h-light/12 h-dark cycle condition with free access to a normal chow diet (NCD, Purina Lab, 38057, protein: 24.52% calories, carbohydrate: 63.07% calories, and fat: 12.41% calories) and water at 22±1° C. […] Ex vivo electron transport activity associated with mitochondrial oxidative phosphorylation was evaluated by monitoring the reduction of 0.1% triphenyl tetrazolium chloride (TTC, Sigma, T8877).

Take `CCCCC#Cc1nc(N)c2ncn([C@@H]3SC[C@@H](O)[C@H]3O)c2n1` [LJ-4378, 2-(6-amino-2-(hex-1-yn-1-yl)-9H-purin-9-yl)tetrahydrothiophene-3,4-diol]: at A3AR, the “KB value at A3AR” value is listed as “nM level”. In addition, in the assay with brown adipocytes [1] (0.1 μM, 24 hours, FIG. 3D), the “P-CREB, fold increase” value is 2.32±0.05 fold and the “P-HSL, fold increase” value worked out at 2.10±0.12 fold. For the same compound, the “P-HSL (serine 660) expression level, fold increase” value in the assay on brown adipocytes [1] (10^−5, 4 hours) was determined as 6.87±0.69 fold. For the same compound, the “P-HSL (serine 660) expression level, fold increase” value in the assay with brown adipocytes [1] (10^−7, 4 hours) is reported as 6.64±0.34 fold. In addition, the “P-HSL (serine 660) expression level, fold increase” value in the assay with brown adipocytes [1] (10^−9 M, 4 hours) amounted to 3.03±0.21 fold. In addition, the “P-HSL (serine 660) expression level, fold increase” value with brown adipocytes [1] (10^−11 M, 4 hours) is reported as 1.55±0.11 fold. Also, in the assay on brown adipocytes [2], the “increase of OCR related to ATP production” value is reported as 29.3%, the “increase of OCR related to basal” value was 30.5% and the “increase of OCR related to maximal” value came out at 49.1%. Moreover, in the assay on BAT, iWAT, and gWAT, the “mitochondrial activity (TTC staining), fold increase in BAT” value is 2.86±0.24 fold; the “mitochondrial activity (TTC staining), fold increase in gWAT” value is 1.72±0.16 fold; the “mitochondrial activity (TTC staining), fold increase in iWAT” value is given as 2.07±0.17 fold. Further, in the assay with HFD-fed mice, the “COXIV upregulation in BAT” value is 5.91±0.23 fold, the “COXIV upregulation in iWAT” value is given as 1.24±0.04 fold, the “P-CREB upregulation in BAT” value is 1.54±0.03 fold and the “P-CREB upregulation in iWAT” value came to 3.86±0.12 fold. In the assay on HFD-fed mice, the “P-HSL upregulation in BAT” value was 2.31±0.18 fold, the “P-HSL upregulation in iWAT” value is 1.72±0.04 fold, the “UCP1 upregulation in BAT” value turned out to be 1.33±0.06 fold and the “UCP1 upregulation in iWAT” value is 3.34±0.36 fold.

For the origin of these results see patent publication US20260027121A1, “LIGAND ACTING ON ADENOSINE RECEPTORS AND COMPOSITION COMPRISING SAME FOR PREVENTION, ALLEVIATION, OR TREATMENT OF OBESITYS” (FUTURE MEDICINE CO., LTD., priority 2022, published 2026).
